Results from patent US20110022129A1, “NANOPARTICLES FOR PHOTODYNAMIC THERAPY” (priority 2007, published 2011).
In brackets after ≈: the same amount, converted by molar mass.

Key:
[1] = system: AB12, murine malignant pleural mesothelioma (MPM); experiment: External-beam (980 nm infrared) nanophosphor-mediated photodynamic therapy of AB12 flank tumors in mice; assay type: in vivo, mouse (BALB/cJ); details: for total number of surviving animals: sixty day observation, survivors/group size
Description: Six to twelve week old, female BALB/cJ (AB12 tumor host) mice, obtained pathogen-free from Taconic Farms, were used for all of the experiments. Animals were kept in conventional conditions in micro-isolator cages in a laminar flow unit under ambient light with full access to food and water during experiments.
AB12, murine malignant pleural mesothelioma (MPM) was utilized for tumor inoculation. Cells were maintained in complete DMEM/F12 culture media in a 37° C. humidified 5% CO2 incubator.
Seventy balb/C mice were inoculated with 5×10^5 AB12, malignant mesothelioma cells via subcutaneous flank injection. The subsequent tumors were measured using digital calipers three times per week until the tumors reached ˜200-300 mm^3 at which time the mice were given their first treatment. Mice were divided into […]. The groups were as follows: i. Control, ii. Infrared light-Nanophosphor-Photosensitizer (IR-NP-PS), iii. IR-NP, iv. IR-PS, v. IR alone, vi. NP alone, and vii. PS alone. Groups ii, iii, and vi were administered intra-tumoral injections with 100 μl of 25 mg/ml nanophosphor suspension in saline at 72 and 48 h prior to only the first treatment. Groups ii, iv, and vii were administered weekly intra-peritoneal (i.p.) injections of 10 mg/kg Photofrin™, twenty-four hours before first treatment of each week.
For this procedure mice were anesthetized with i.p. ketamine and xylazine, 80 mg/kg and 12 mg/kg, respectively. A maximum dose of 1.0 W of 980 nm light (BW Tek) at the treatment surface was measured using an IR thermopile detector (Coherent, Inc) for a total dose of 28.3 J/cm^2. Pulsed light delivery method of 1 second ON, 2 seconds OFF for 1.5 hours was utilized to minimize damage of healthy tissue due to heat from the infrared light by allowing the tissue to dissipate the heat between delivery cycles. […] Over the course of the entire treatment program tumors were measured three times weekly and mice were monitored for signs of morbidity for 60 days or until tumors reached endpoint of 500 mm^3.

physchem = details: aqueous with cosolvent or surfactant or cyclodextrin, kinetic from dmso stock
Description: Nanoparticles were isolated as previously described, and the concentration of free β-carotene in the filtrate measured.

Molecule: Photofrin [PS alone]
- total number of surviving animals [1]: 0/9

Molecule: CC1=C(/C=C/C(C)=C/C=C/C(C)=C/C=C/C=C(C)/C=C/C=C(C)/C=C/C2=C(C)CCCC2(C)C)C(C)(C)CCC1 [β-carotene]
- solubility (physchem): ~50 µg/mL (≈ 93.1 µM)

Molecule: Photofrin [IR-PS]
- tumor regression ([1]; over treatment program, in words): No animals
- total number of surviving animals [1]: 0/10
